According to PubChem BioAssay (NCI):
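96-well plates; 48 h exposure; 5 concentrations. Endpoints by linear interpolation between flanking doses. Not reached: highest tested concentration assigned. Abbreviation: GI50, concentration required for 50% inhibition of growth. TGI: concentration producing complete growth inhibition.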

Experiments:
Test in all cases: NCI anticancer screen, dose series, 48 h
ACHN renal = tested on: ACHN renal
KM12 colon = tested on: KM12 colon
HOP-62 NSCLC = tested on: HOP-62 NSCLC
TK-10 renal = tested on: TK-10 renal
EKVX NSCLC = tested on: EKVX NSCLC
UACC-62 melanoma = tested on: UACC-62 melanoma
OVCAR-4 ovarian = tested on: OVCAR-4 ovarian
LOX IMVI melanoma = tested on: LOX IMVI melanoma
SF-268 CNS = tested on: SF-268 CNS
SF-295 CNS = tested on: SF-295 CNS

| Structure (SMILES) | TGI (ACHN renal) [µM] | TGI (KM12 colon) [µM] | TGI (HOP-62 NSCLC) [µM] | TGI (TK-10 renal) [µM] | TGI (EKVX NSCLC) [µM] | TGI (UACC-62 melanoma) [µM] | TGI (OVCAR-4 ovarian) [µM] | TGI (LOX IMVI melanoma) [µM] | TGI (SF-268 CNS) [µM] | TGI (SF-295 CNS) [µM] | GI50 (OVCAR-4 ovarian) [µM] |
| --- | --- | --- | --- | --- | --- | --- | --- | --- | --- | --- | --- |
| O=C1NCC(NC(=O)C(F)(F)F)c2c(Br)sc(Br)c21 (stereo not drawn) | > 100 | > 100 | > 100 | > 100 | > 100 | > 100 | > 100 | > 100 | > 100 | > 100 |  |
| O=C(Nc1ccccc1F)c1cc2ccc(O)cc2oc1=Nc1ccccc1F | 5.3 | 5.37 | 4.31 |  | 6.01 | 5.9 | 3.94 | 4.16 | 5.26 | 8.48 |  |
| Nc1nc(Cl)cc(NCC2(CO)CCC(CCc3ccccc3)C2)n1 (stereo not drawn) | 29.9 | 30.1 | 23.1 | 48.9 | 25.9 | 28.3 | 31.2 | 26.3 | 35.6 | 21.8 |  |
| CCCCNC(=S)N/N=C/c1cccc(C)n1 | 68 | > 100 | 55.2 | 97.6 | > 100 | 68.3 | > 100 | > 100 | > 100 | > 100 |  |
| c1ccc2c(c1)c1c(n2CCOCCN2CCOCC2)CCCC1 | > 100 | > 100 | > 100 | 58.6 | > 100 |  | 86.8 | 63.6 | > 100 | 50 |  |
| CC1CN=C(N(C(=O)Nc2ccc(F)c(Cl)c2)c2ccccc2)S1 (stereo not drawn) | 87.9 | 78.3 | 61.6 | 68.4 | 62.4 |  | > 100 | 32.5 | > 100 | > 100 |  |
| CNc1ncnc2c1cnn2COCC(O)CO (stereo not drawn) | > 100 | > 100 | > 100 | > 100 | > 100 | > 100 | > 100 | > 100 | > 100 | > 100 |  |
| Cc1cn([C@@H]2C[C@H](CO)[C@@H](O)C2)c(=O)[nH]c1=O | > 100 | > 100 | > 100 |  | > 100 | > 100 | > 100 | > 100 | > 100 | > 100 |  |
| N#CC(N=Nc1ccc(Cl)cc1)c1nc2ccccc2o1 (stereo not drawn) | > 100 | > 100 | > 100 | > 100 | > 100 | > 100 | > 100 |  | > 100 | 67.9 |  |
| CC(C)=CCC/C(C)=C/COC(C)(C)C1=CCC(C)CC1 (stereo not drawn) (tested in a mixture with another compound) | > 100 | > 100 | > 100 | > 100 | > 100 | > 100 | > 100 |  | > 100 | > 100 |  |
| NNC1=N/C(=C\c2ccco2)C(Cl)=N1 | > 100 | > 100 | > 100 | > 100 | > 100 |  | 75.8 | 70.8 | > 100 | > 100 |  |
| Cn1ccnc1C(O)(c1nccn1C)c1nccn1C | > 100 | > 100 | > 100 | > 100 | > 100 |  | > 100 | > 100 | > 100 | > 100 |  |
| O=c1ccn(C2OC(CO)C(P(=O)(O)O)C2O)c(=O)[nH]1 (stereo not drawn) | > 100 | > 100 | > 100 | > 100 | > 100 | > 100 | > 100 | > 100 | > 100 | > 100 |  |
| CSC(=Nc1ccccc1)N(c1ccccc1)c1nc(=[N+](C)C)ss1 | 16.9 | 13.7 | 27.2 | 27.7 | 29.5 | 1.74 | 21.5 | 12.7 | 21.6 | 25.1 |  |
| CC(C)(C)OC(=O)NCCC(N)=S | > 100 | > 100 | > 100 | > 100 | > 100 | > 100 |  |  | > 100 | > 100 |  |
| Cc1ccc(CC[P+](=O)CCc2ccc(C)nc2)cn1 | > 100 | > 100 | > 100 | > 100 | > 100 | > 100 | > 100 | > 100 | > 100 | > 100 |  |
| CC(=O)OCC1OC(n2cc(I)c(=O)[nH]c2=O)C(OC(C)=O)C(OC(C)=O)C1OC(C)=O (stereo not drawn) | > 100 | > 100 | > 100 | > 100 | > 100 | > 100 | > 100 | > 100 | > 100 | > 100 |  |
| O=C1Sc2ccccc2C(=O)N2CSCC12 (stereo not drawn) | > 100 | > 100 | > 100 | > 100 | > 100 | > 100 |  | > 100 | > 100 | > 100 |  |
| CCOC(=O)C1(C(=O)OCC)COS(=O)OC1 | > 100 | > 100 |  | > 100 |  |  | 42.6 | 28.4 |  | > 100 |  |
| N#CC1=C(c2ccccc2)NNC(c2ccc(Cl)cc2)CC1=O (stereo not drawn) | > 100 | > 100 | 73.8 | > 100 |  |  | > 100 | > 100 | > 100 | 73.1 |  |
| Nc1ccc(-c2nc3ccccc3s2)cc1C(F)(F)F | 28.5 | 31.2 | 30 | 26 | 23.9 | 30.6 | 32.9 | 32.4 | 30.4 | 32.1 | 15.9 |
| O=C(Oc1cc(=O)c(OC(=O)c2ccccc2)co1)c1ccccc1 | > 100 | > 100 | > 100 | > 100 |  | > 100 | > 100 | > 100 | > 100 | > 100 |  |
